Key:
[1] = tested on: rats with controlled cortical impact (CCI) injury; assay: Modified neurological severity score (mNSS) after CCI injury; assay type: in vivo, rat; conditions: P<0.05
Description: A previously described CCI injury procedure was utilized (Chen et al., 2003). Male Sprague-Dawley rats, which have body weight of 250-300 g, were anaesthetized with sodium pentobarbital (i.p.; 50 mgkg^−1; Rhone Merieux, Harlow, UK) and placed in a stereotaxic frame. A 5-mm craniotomy was performed over the left parietal cortex, centered on the coronal suture and 3 mm lateral to the sagittal suture. Considerable care was taken to avoid injury to the underlying dura. Injury was made using a pneumatic piston with a rounded metal tip (2.5 mm diameter) that was angled 22.5° C. to the vertical so that the tip was perpendicular with the brain surface at the centre of the craniotomy. A velocity of 4 ms^−1 and a deformation depth 2 mm below the dura were used. The bone flap was immediately replaced and sealed, and the scalp was closed with sutures. Body temperature was monitored throughout the surgery by a rectal probe; temperature was maintained at 37.0±0.5° C. using a heated pad. Rats were placed in a heated cage to maintain body temperature, while recovering from anaesthesia. Baicalein (30 mg kg^−1) dissolved in 10% dimethyl sulphoxide (0.25-0.3 mL) or a corresponding volume of vehicle (10% dimethyl sulphoxide) was administered i.p. immediately following injury or daily for 4 days (immediately, 25, 49 and 73 h) after injury. Behaviour testing using the rotarod, tactile adhesive removal, mNSS and beam walk tests was performed at […] as well as 4, 7, 14, 21 and 28 days post-injury. At 14 and 28 days, the animals were killed, perfused intravascularly and their brains were processed with cresyl violet staining to assess contusion volume (n=8 for each group). […] Behaviour testing was performed before CCI and at […] after CCI by an observer who was unaware of the experimental treatments. The battery of tests consisted of the rotarod motor test, tactile adhesive-removal somatosensory test, mNSS and beam walk test. […] One point was scored for the inability to perform the test or for the lack of a tested reflex; thus, the higher the score, the more severe the injury. […]

[2] = tested on: degenerating neurons (FJB-positive cells) in cortical contusion margin; assay: Neuronal degeneration, FluoroJade B (FJB) staining; assay type: in vivo, rat; conditions: single-dose 30 mg kg^-1 i.p., 1 day post-injury, P<0.05
Description: A previously described CCI injury procedure was utilized (Chen et al., 2003). Male Sprague-Dawley rats, which have body weight of 250-300 g, were anaesthetized with sodium pentobarbital (i.p.; 50 mgkg^−1; Rhone Merieux, Harlow, UK) and placed in a stereotaxic frame. A 5-mm craniotomy was performed over the left parietal cortex, centered on the coronal suture and 3 mm lateral to the sagittal suture. Considerable care was taken to avoid injury to the underlying dura. Injury was made using a pneumatic piston with a rounded metal tip (2.5 mm diameter) that was angled 22.5° C. to the vertical so that the tip was perpendicular with the brain surface at the centre of the craniotomy. A velocity of 4 ms^−1 and a deformation depth 2 mm below the dura were used. The bone flap was immediately replaced and sealed, and the scalp was closed with sutures. Body temperature was monitored throughout the surgery by a rectal probe; temperature was maintained at 37.0±0.5° C. using a heated pad. […] Testing after injury was as follows: (1) real-time quantitative RT-PCR analysis for TNF-α, IL-1β and IL-6 mRNA expression at 6 h post-injury (n=7 for each group); (2) FluoroJade B (FJB) staining, TNF-α, IL-1β and IL-6 immunohistochemistry, as well as ELISA at 24 h post-injury to assess degenerative neurons and to determine cytokine expression (n=7 for each group). […]

O=c1cc(-c2ccccc2)oc2cc(O)c(O)c(O)c12 [baicalein]
mNSS neurological deficit, multiple-dose versus single-dose treatment ([1]; 30 mg kg^-1 i.p., days 4 and 7 after injury): significantly greater reduction | mNSS scores versus vehicle-treated group ([1]; multiple-dose 30 mg kg^-1 i.p. daily for 4 days, days 1-28): significantly less | mNSS scores versus vehicle-treated group ([1]; single-dose 30 mg kg^-1 i.p., days 1-14): significantly less | reduction of the number of FJB-positive cells versus vehicle [2]: 31%
